# Assay results reported in US9932303B2, “N-hydroxymethanesulfonamide nitroxyl donors” (Cardioxyl Pharmaceuticals, Inc., priority 2014, dated 2018).
# Tests used:
# [1] = Nitroxyl production via N2O headspace analysis (GC); conditions: PBS, 37° C.
# Excerpt: Nitrous oxide (N2O) is produced via the dimerization and dehydration of HNO, and is the most common marker for nitroxyl production (Fukuto et al., Chem. Res. Toxicol. 18:790-801 (2005)). […] Using either nitrous oxide gas or Angeli's salt (AS) as a standard, the relative amounts of N2O released from N-hydroxymethanesulfonamide nitroxyl donating compounds was examined via gas chromatography (GC) headspace analysis.
# A procedure for determining the relative amounts of N2O released from N-hydroxymethanesulfonamide nitroxyl donating compounds is as follows. GC was performed on an Agilent gas chromatograph equipped with a split injector (10:1 splitting), microelectron capture detector, and a HP-MOLSIV 30 m×0.32 mm×25 μm molecular sieve capillary column. Helium was used as the carrier (4 mL/min) gas and nitrogen was used as the make-up (20 mL/min) gas. […]
# All determinations used a batch of nominal 20 mL headspace vials with volumes pre-measured for sample uniformity (actual vial volume varied by ≤2.0% relative standard deviation (n=6)). The average vial volume for the batch was determined from six randomly-selected vials by calculating the weight difference between the capped and sealed empty (i.e., air-filled) vial and the capped and sealed deionized water-filled vial using the known density of deionized water, then averaging. […]
# [2] = In vitro stability in human plasma; format: in vitro ADME; conditions: male, pH 7.4, 37° C., read-out: T1/2 (minutes) Human
# Experimental: (§1) Certain compounds from Table 1 were tested for their stability in plasma. The assay system comprised (i) PBS, or plasma from rat, dog or human (at least 3 donors, male, pooled) at pH 7.4, and (ii) for tests conducted in plasma, an anticoagulant (sodium heparin or sodium citrate). Each test compound (5 μM) was incubated in PBS or plasma at 37° C. on a THERMOMIXER® with shaking Three samples (n=3) were taken at each of seven sampling time points: 0, 10, 30, 60, 90, 180 and 360 minutes. The samples were immediately combined with 3 volumes (i.e., 3 times the volume of PBS or plasma) of acetonitrile containing 1% formic acid and an internal standard to terminate the reaction. AB SCIEX API 3000 LC-MS/MS analysis of the test compounds was performed without a standard curve. Half-lives (T1/2) of the test compounds were determined from graphs of the percent remaining values using the peak area response ratio.
# [3] = In vitro stability in dog plasma; format: in vitro ADME; conditions: male, pH 7.4, 37° C., read-out: T1/2 (minutes) Dog
# Experimental: as §1
# [4] = Solid-state stability (appearance, HPLC purity) on storage; format: physicochemical; conditions: 40° C., 70% RH
# Experimental: Solid, powdered samples of compound 2 (1-(4-chlorophenyl)-N-hydroxymethanesulfonamide) were sealed in double polyethylene bags and stored at 40° C., 70% relative humidity (RH) for up to 3 months. After 2 weeks, 1 month, 2 months, and 3 months of storage, the samples were analyzed for visual appearance and/or purity, as determined by high performance liquid chromatography (HPLC). The HPLC measurement conditions were as follows: • Column: PrimeSep AB, 150×4.6 mm, 5 μm • Injection Volume: 10 μL • Detection Wavelength: 220 nm • Mobile Phase A: 0.3% Trifluoroacetic acid (TFA) in deionized water (DI-H2O) • Mobile Phase B: 0.2% TFA in acetonitrile • Diluent: Acetonitrile • Gradient:
# • Flow Rate: 1.0 mL/min • Column Temperature: 30° C.
# [5] = In vitro stability in rat plasma; format: in vitro ADME; conditions: male, pH 7.4, 37° C., read-out: T1/2 (minutes) Rat
# Experimental: as §1
smiles,measurement,setting,value
"O=S(=O)(Cc1ccc(Cl)cc1)NO [Compound 2, 1-(4-Chlorophenyl)-N-hydroxymethanesulfonamide]",Relative N2O Yield (90 minute incubation),[1],24%
same,half-life at 5 μM,[2],102 min
same,half-life at 5 μM,[3],62 min
same,Appearance,[4]; 0 Weeks,White
same,HPLC Purity,[4]; 0 Weeks,98.912%
same,HPLC peak at RRT 0.88,[4]; 0 Weeks,0.368%
same,HPLC peak at RRT 1.23,[4]; 0 Weeks,0.087%
same,HPLC peak at RRT 1.35,[4]; 0 Weeks,0.633%
same,Appearance,[4]; 1 Month,White
same,HPLC Purity,[4]; 1 Month,95.579%
same,HPLC peak at RRT 0.88,[4]; 1 Month,0.966%
same,HPLC peak at RRT 1.54,[4]; 1 Month,1.959%
same,HPLC peak at RRT 1.76,[4]; 1 Month,0.502%
same,Appearance,[4]; 2 Months,Off white
same,HPLC Purity,[4]; 2 Months,82.665%
same,HPLC peak at RRT 0.88,[4]; 2 Months,3.600%
same,HPLC peak at RRT 1.53,[4]; 2 Months,6.432%
same,HPLC peak at RRT 1.77,[4]; 2 Months,3.234%
same,Appearance,[4]; 2 Weeks,White
same,Appearance,[4]; 3 Months,Off white
same,HPLC Purity,[4]; 3 Months,76.661%
same,HPLC peak at RRT 0.88,[4]; 3 Months,4.108%
same,HPLC peak at RRT 1.50,[4]; 3 Months,10.123%
same,HPLC peak at RRT 1.77,[4]; 3 Months,3.165%
same,half-life at 5 μM,[5],114 min
same,melting point,,144 °C
